Results on one molecule are retold here after patent publication US8795611B2 (priority 2009, dated 2014).

The format of data set [1] is physicochemical. As to conditions: 1.5 mol/L DEHiBA in Isane IP 185; aqueous 360 g/L uranium, 2 mol/L nitric acid; even after uranium depletion; 25° C.
Data set [2] is described as follows: Distribution coefficient, single contact in tubes, 1.5 mol/L DEHiBA in Isane IP 185 vs nitric acid solutions (ICP-AES). The note with it: HNO3 0.5 to 4 M, 25° C. In kind it is physicochemical.
Experiment in data set [3]: as above
The format is physicochemical. The note with it: HNO3 0.5 to 4 M, 25° C. The source holds these as a separate data set.

Experiment in data set [4]: as above
In kind it is physicochemical. The note with it: HNO3 0.5 to 4 M, 25° C. The source holds these as a separate data set.

Experiment in data set [5]: as above
As to conditions: nitric acid 4 mol/L, regardless of the uranium concentration, 25° C. In kind it is physicochemical.

The nature of data set [6]: Solubility of DEHiBA in an aqueous phase by total organic carbon (TOC) measurement, test in mixers-decanters. The format is physicochemical. As to conditions: for DEHiBA equivalent: assumes all organic carbon stems from the extractant. The text has this: The solubility of DEHiBA in an aqueous phase was appreciated by conducting a test in mixers-decanters similar to the one described in Example 1 hereinbefore and by measuring the total organic carbon (or TOC) present in the aqueous phase exiting the battery 11 (called <<extraction raffinate>> hereafter) on the one hand and, in the aqueous phase exiting the battery 13 and containing the purified uranyl nitrate (called <<U production>> hereafter) on the other hand.
The total organic carbon was measured by means of a thermal TOC-meter in the aqueous phases as obtained after decantation, i.e. without submitting these phases to any centrifugation.

The format of data set [7] is physicochemical. As to conditions: 1.5 mol/L DEHiBA in Isane IP 185, HNO3 0.5 to 4 M, 25° C.
Data set [8] can be described thus: Distribution coefficient, single contact in tubes, 1.5 mol/L DEHiBA in Isane IP 185 vs nitric acid solutions (ICP-AES). In kind it is physicochemical. As to conditions: HNO3 0.5 to 4 M, 25° C. The source holds these as a separate data set.
[9] abbreviates: with or without 30 g/L uranium, 1 hour.

Values after ≈ are worked out from the molar mass of the structure shown.

Consider `CCCCC(CC)CN(CC(CC)CCCC)C(=O)C(C)C` (stereo not drawn) [DEHiBA, N,N-di-(2-ethylhexyl)isobutyramide], for which the “distribution coefficient of thorium 234, DTh” value in data set [1] was “less than 10^−2”. For the same molecule, in data set [2], the “U/impurities separation factor (calcium)” value is “greater than 10,000”. For the same molecule, the “distribution coefficient of calcium” value in data set [2] (setting [9]) is “less than 10^−3”. Besides, the “U/impurities separation factor (vanadium)” value in data set [3] is recorded as “greater than 10,000”. The “distribution coefficient of vanadium” value in data set [3] (setting [9]) is “less than 10^−3”. Further, the “U/impurities separation factor (molybdenum)” value in data set [4] is reported as “greater than 10,000”. The “distribution coefficient of molybdenum” value in data set [4] (setting [9]) is “less than 10^−3”. For the same molecule, the “distribution coefficient of thorium(IV)” value in data set [5] is “less than 5.10^−3”. Besides, the DEHiBA equivalent was determined as 0.00019 mol/L in data set [6] (U production, HNO3 0.34 mol/L) and 0.00013 mol/L in data set [6] (extraction raffinate, HNO3 3.1 mol/L). Besides, the solubility in data set [6] (aqueous phase after decantation, under the conditions of the test, includes diluent (TPH) and carried-away organic phase, read-out: DEHiBA soluble in an aqueous phase) was in the range of 40 to 60 µg/mL (≈ 128 to 193 µM). Further, the “U/impurities separation factor (iron)” value in data set [7] is “greater than 10,000”. The “distribution coefficient of iron” value in data set [7] (setting [9]) is listed as “less than 10^−3”. Besides, the “U/impurities separation factor (zirconium)” value in data set [8] was “greater than 10,000”. Also, in data set [8] (setting [9]), the “distribution coefficient of zirconium” value is given as “less than 10^−3”.
